{
  "source": "ChEMBL document CHEMBL1201862",
  "about": "“PubChem BioAssay data set” (2004)",
  "key": {"[1]": {"test": "viability of uninfected HEp-2 cells – cell-based, HTS, cytotoxicity control for RSV inhibitor project, dose response (AID 2410)", "type": "functional", "details": "human respiratory syncytial virus"}, "CAAX prenyl protease 2 [2]": {"target": "CAAX prenyl protease 2 (Saccharomyces cerevisiae S288c, UniProt Q03530)", "sequence (Q03530 whole entry)": "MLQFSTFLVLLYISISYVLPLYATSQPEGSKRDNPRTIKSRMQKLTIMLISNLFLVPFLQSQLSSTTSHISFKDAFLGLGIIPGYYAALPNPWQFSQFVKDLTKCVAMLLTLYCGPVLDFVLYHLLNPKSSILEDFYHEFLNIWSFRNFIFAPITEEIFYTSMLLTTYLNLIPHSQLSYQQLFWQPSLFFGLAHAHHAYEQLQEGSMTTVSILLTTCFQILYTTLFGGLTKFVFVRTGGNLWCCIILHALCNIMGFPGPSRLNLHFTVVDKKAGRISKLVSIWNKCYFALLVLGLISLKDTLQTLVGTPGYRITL", "type": "biochemical"}, "CAAX prenyl protease 2 [3]": {"target": "T1, CAAX prenyl protease 2 (Homo sapiens, UniProt Q9Y256)", "T1 sequence (Q9Y256 whole entry)": "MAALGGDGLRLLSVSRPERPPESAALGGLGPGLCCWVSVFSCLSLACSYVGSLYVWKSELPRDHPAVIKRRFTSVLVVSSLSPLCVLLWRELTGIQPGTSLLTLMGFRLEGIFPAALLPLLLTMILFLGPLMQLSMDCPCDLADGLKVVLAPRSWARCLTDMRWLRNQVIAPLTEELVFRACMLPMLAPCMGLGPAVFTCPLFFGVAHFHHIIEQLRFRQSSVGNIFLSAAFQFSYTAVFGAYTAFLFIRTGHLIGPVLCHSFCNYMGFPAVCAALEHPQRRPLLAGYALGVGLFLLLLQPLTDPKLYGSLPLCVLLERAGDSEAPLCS", "test": "inhibition of Ras-converting CAAX protease Rce1 – biochemical, yeast membranes, quenched-peptide fluorescence, cherry-pick, dose response (AID 588849)"}, "[4]": {"target": "Disintegrin and metalloproteinase domain-containing protein 17 (Homo sapiens, UniProt P78536)", "sequence (P78536 whole entry, the tested form may be a part)": "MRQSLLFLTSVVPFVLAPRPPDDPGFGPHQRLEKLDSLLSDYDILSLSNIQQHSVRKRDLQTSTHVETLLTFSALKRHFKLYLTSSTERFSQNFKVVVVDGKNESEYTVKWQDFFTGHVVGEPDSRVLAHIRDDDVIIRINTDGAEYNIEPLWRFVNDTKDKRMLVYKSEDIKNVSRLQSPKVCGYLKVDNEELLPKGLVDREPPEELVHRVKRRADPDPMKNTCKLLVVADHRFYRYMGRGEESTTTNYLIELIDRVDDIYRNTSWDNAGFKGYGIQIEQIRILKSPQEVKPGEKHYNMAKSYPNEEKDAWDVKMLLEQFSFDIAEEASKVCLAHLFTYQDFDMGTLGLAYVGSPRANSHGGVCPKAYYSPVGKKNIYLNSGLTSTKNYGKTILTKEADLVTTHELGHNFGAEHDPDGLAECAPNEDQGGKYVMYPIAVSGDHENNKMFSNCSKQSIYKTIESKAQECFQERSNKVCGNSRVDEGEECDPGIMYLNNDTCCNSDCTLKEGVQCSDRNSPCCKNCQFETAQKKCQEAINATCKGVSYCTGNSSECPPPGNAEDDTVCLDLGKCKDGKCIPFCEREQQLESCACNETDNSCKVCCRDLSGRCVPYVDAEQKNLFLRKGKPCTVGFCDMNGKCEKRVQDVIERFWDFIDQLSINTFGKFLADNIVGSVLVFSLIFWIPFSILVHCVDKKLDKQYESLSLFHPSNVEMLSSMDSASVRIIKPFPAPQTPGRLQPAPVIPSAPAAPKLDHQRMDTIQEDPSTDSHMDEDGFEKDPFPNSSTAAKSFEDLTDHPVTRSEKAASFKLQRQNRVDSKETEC", "test": "exosite inhibitors of ADAM17, dose response, biochemical (AID 743260)"}, "[5]": {"test": "inhibition of ADAM10 peptide cleavage – biochemical, FRET peptide substrate, recombinant human ADAM10, selectivity assay for ADAM17 exosite inhibitor project, dose response (AID 743259)"}, "[6]": {"target": "Scavenger receptor class B member 1 (Mus musculus, UniProt Q61009)", "sequence (Q61009 whole entry)": "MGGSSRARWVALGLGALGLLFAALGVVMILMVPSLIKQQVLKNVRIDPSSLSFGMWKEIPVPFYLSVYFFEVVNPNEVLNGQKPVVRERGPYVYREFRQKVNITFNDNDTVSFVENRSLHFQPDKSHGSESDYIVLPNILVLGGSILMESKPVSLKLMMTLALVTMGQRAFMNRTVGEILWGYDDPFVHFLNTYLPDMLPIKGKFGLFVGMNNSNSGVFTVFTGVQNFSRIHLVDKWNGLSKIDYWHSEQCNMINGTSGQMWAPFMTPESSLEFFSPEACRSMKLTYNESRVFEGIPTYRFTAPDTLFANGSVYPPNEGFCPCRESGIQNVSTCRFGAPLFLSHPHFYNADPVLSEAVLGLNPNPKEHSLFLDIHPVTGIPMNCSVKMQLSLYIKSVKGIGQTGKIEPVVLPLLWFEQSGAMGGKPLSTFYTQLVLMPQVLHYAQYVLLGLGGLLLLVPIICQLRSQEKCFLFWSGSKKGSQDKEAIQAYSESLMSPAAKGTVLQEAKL", "test": "mouse SR-BI DiI-HDL uptake blockers – ldlA[mSR-BI] cells, fluorescence, cherry pick, dose response (AID 493194);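 also: cellular uptake of fluorescent DiI-labeled HDL measured as cell fluorescence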", "type": "functional, cell-based"}, "[7]": {"target": "T2, Tyrosine-protein phosphatase non-receptor type 7 (Homo sapiens, UniProt P35236)", "T2 sequence (P35236 whole entry)": "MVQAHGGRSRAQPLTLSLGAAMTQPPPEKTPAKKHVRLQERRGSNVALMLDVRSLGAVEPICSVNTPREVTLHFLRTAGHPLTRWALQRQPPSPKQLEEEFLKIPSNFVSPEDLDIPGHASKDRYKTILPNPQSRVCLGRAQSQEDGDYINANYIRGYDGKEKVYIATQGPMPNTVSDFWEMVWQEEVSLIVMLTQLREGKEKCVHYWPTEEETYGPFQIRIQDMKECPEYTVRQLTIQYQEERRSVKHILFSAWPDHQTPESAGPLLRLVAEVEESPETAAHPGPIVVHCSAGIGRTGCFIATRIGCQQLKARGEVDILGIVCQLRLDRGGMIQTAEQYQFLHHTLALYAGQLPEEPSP", "type": "functional"}, "[8]": {"target": "Glyceraldehyde-3-phosphate dehydrogenase (Homo sapiens, UniProt P04406)", "sequence (P04406 whole entry)": "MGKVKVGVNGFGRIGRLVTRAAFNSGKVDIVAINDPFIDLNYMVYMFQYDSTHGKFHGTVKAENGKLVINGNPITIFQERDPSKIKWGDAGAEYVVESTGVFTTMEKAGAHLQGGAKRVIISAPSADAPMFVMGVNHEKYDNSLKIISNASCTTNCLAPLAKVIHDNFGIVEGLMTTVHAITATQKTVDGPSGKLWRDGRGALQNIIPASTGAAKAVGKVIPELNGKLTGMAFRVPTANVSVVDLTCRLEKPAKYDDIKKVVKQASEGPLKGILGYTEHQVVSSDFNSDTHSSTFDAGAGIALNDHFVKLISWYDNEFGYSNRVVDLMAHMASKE"}, "[9]": {"target": "T3, Dual specificity protein phosphatase 6 (Rattus norvegicus, UniProt Q64346)", "T3 sequence (Q64346 whole entry)": "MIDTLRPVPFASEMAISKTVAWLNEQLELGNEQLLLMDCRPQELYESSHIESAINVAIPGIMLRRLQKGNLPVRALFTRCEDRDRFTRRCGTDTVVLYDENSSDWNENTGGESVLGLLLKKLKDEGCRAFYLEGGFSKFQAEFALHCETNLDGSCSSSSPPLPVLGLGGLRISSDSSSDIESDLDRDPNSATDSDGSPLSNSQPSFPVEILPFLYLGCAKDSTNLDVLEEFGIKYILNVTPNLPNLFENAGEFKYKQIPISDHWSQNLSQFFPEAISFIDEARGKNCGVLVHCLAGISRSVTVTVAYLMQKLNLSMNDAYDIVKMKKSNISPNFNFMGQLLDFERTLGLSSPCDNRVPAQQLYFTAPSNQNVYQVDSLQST"}, "[10]": {"target": "T3, Dual specificity protein phosphatase 6", "type": "functional"}, "[11]": {"target": "DNA dC->dU-editing enzyme APOBEC-3A (Homo sapiens, UniProt P31941)", "sequence (P31941 whole entry)": "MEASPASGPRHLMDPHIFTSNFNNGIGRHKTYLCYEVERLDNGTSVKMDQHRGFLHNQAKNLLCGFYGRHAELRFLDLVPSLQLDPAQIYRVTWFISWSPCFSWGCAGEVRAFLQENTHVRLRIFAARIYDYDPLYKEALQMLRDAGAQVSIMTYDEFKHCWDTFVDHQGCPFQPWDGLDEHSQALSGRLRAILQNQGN", "test": "A3A deaminase inhibition for selectivity – biochemical, dose response (AID 504722)", "type": "functional"}, "[12]": {"target": "DNA dC->dU-editing enzyme APOBEC-3G (Homo sapiens, UniProt Q9HC16)", "sequence (Q9HC16 whole entry)": "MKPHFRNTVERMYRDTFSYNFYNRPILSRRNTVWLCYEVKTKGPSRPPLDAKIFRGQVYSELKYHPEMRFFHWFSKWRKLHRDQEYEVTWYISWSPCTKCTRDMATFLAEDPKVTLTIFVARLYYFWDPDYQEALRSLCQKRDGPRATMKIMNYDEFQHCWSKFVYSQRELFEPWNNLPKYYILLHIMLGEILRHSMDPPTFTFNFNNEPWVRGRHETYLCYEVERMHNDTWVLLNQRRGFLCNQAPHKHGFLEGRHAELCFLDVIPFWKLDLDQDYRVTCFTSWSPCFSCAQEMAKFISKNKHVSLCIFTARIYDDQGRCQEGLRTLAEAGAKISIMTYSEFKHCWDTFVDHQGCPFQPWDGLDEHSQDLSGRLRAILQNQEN", "test": "Dose Response confirmation of small molecule APOBEC3G DNA Deaminase Inhibitors via a fluorescence-based single-stranded DNA deaminase assay. [Related pubchem assays (depositor defined):AID493012, AID493028]", "type": "functional"}, "[13]": {"test": "luciferase reporter signal suppression in cells – H4 neuroglioma cells, luminescence, dose response (AID 1990)", "type": "functional, cell-based"}, "[14]": {"test_system": "Streptococcus sp. 'group A'", "test": "Streptococcus pyogenes SK(-)GAS viability under kanamycin – luminescence, BacTiterGlo, confirmation, counter-screen for streptokinase expression inhibitor project, dose response (AID 1900)", "type": "functional, organism-based"}, "BJ [15]": {"test_system": "BJ", "test": "BJ-TERT fibroblast viability loss – cell-based, RAS-independent, luminescence, dose response (AID 1933)", "type": "functional", "details": "Homo sapiens"}, "cells [16]": {"test": "cells", "type": "functional, cell-based"}, "[17]": {"test": "Luminescence Cell-Based Dose Response HTS to Identify Inhibitors of 5'UTR Stem-Loop Driven Prion Protein mRNA Translation in H4 Neuroglioblastoma Cells. [Related pubchem assays: 1827 (Project Summary), 1813 (Primary HTS)]", "type": "functional"}, "[18]": {"test": "alpha-synuclein stem-loop luciferase translation blockers – H4 neuroglioma cells, luminescence, confirmation (AID 1988)", "type": "functional, cell-based"}, "BJ [19]": {"test_system": "BJ", "test": "cells", "type": "functional, cell-based", "details": "Homo sapiens"}, "cells [20]": {"test": "cells", "type": "functional, cell-based", "remark": "listed apart in the source"}, "[21]": {"target": "T4, Kappa-type opioid receptor (Homo sapiens, UniProt P41145)", "T4 sequence (P41145 whole entry)": "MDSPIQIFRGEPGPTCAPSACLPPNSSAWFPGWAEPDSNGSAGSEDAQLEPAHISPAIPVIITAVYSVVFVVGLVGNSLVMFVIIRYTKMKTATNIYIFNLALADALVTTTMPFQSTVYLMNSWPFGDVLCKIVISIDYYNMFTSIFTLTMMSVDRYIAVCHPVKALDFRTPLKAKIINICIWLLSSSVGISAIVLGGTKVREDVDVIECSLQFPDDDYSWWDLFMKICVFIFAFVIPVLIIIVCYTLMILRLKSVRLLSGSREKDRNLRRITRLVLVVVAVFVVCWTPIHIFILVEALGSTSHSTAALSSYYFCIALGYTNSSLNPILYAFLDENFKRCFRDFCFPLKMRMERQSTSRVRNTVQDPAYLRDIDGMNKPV", "type": "functional"}, "Beta-galactosidase": {"target": "Beta-galactosidase (Escherichia coli, UniProt Q8VNN2)", "sequence (Q8VNN2 whole entry)": "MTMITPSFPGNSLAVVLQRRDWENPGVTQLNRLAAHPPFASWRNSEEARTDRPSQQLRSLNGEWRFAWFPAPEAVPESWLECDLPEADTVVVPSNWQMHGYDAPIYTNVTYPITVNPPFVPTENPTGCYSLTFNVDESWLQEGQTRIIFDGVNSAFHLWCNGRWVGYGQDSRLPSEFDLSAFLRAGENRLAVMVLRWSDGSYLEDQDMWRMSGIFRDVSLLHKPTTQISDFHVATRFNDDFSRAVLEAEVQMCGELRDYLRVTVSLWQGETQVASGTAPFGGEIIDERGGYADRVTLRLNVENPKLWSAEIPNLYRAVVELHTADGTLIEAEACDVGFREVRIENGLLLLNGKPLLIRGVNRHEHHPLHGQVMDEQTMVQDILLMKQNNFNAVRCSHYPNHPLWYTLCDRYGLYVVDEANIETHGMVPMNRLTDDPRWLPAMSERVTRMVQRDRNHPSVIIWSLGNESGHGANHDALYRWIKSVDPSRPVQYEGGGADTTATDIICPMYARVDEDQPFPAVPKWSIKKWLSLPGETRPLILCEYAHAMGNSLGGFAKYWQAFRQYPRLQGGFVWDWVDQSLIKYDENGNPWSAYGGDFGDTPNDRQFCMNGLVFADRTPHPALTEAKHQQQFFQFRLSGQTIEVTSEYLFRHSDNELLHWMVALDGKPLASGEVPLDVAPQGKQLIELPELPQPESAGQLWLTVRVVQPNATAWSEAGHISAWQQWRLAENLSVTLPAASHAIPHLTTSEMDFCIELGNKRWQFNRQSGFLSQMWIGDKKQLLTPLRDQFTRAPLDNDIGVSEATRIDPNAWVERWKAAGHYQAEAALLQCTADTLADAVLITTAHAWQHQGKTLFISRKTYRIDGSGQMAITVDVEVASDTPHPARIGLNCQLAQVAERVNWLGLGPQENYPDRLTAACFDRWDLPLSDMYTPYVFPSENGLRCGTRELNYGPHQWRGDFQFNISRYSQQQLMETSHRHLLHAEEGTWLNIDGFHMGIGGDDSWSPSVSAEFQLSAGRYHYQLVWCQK", "type": "functional"}, "BJ [22]": {"test_system": "BJ", "test": "BJ-TERT-LT-ST fibroblast viability loss – cell-based, RAS-independent, luminescence, dose response (AID 1935);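 also: BJ fibroblasts immortalized with TERT plus LT and ST oncogenes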", "type": "functional", "details": "Homo sapiens"}, "[23]": {"target": "T4, Kappa-type opioid receptor", "type": "functional", "remark": "listed apart in the source"}, "[24]": {"test": "DRD fibroblast viability loss – cell-based, non-viral oncogenic, luminescence, dose response (AID 1934)", "type": "functional", "details": "Homo sapiens"}, "Streptococcus": {"test_system": "Streptococcus", "test": "GAS UMAA2166 growth inhibition – luminescence, BacTiterGlo, counter-screen for streptokinase expression inhibitor project, dose response (AID 1915);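 also: potency for reduction of bacterial viability or growth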", "type": "functional, organism-based"}, "Vero [25]": {"test_system": "Vero", "test": "cells", "type": "functional, cell-based", "details": "Chlorocebus sabaeus"}, "BJ [26]": {"test_system": "BJ", "test": "growth inhibition of engineered Ras-driven BJ cells – cell-based, alamar blue fluorescence, cherrypicked samples, dose response (AID 2631)", "type": "functional", "details": "Homo sapiens"}, "INS1": {"test_system": "INS1", "test": "INS-1E survival protection against cytokine death – cell-based, luminescence, retest, dose response (AID 449756);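 also: cell death triggered by IL-1 beta plus TNF-alpha plus IFN-gamma mixture; protective hits raise ATP signal compared with cytokine alone wells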", "type": "functional", "details": "Rattus norvegicus"}, "Vero [27]": {"test_system": "Vero", "test": "cells", "type": "functional", "details": "Chlorocebus sabaeus"}},
  "note": "Calls of active or inactive are those of the source.",
  "data": [
    {"compound": "CCO[C@H]1OC(C(=O)Nc2ccccc2)=C[C@@H](c2csc3ccccc23)[C@@H]1CCCO", "values": [
      {"measurement": "CC50", "setting": "[1]", "result": "18.7 µM (active)"},
      {"measurement": "AC50", "setting": "CAAX prenyl protease 2 [2]", "result": "17.5 µM (active)"},
      {"measurement": "AC50", "setting": "CAAX prenyl protease 2 [3]", "result": "0.183 µM (active)"},
      {"measurement": "IC50", "setting": "[4]", "result": "> 69.5 µM (inactive)"},
      {"measurement": "IC50", "setting": "[5]", "result": "11.2 µM (inactive)"}
    ]},
    {"compound": "CCn1c(COc2c(C)cccc2C)nnc1SCC(=O)N1CCN(c2ccccc2)CC1", "values": [
      {"measurement": "AC50", "setting": "[6]", "result": "23 µM (active)"}
    ]},
    {"compound": "CCCCCCn1c(=O)nc(NCc2ccccc2OC)[nH]c1=O", "values": [
      {"measurement": "IC50", "setting": "[7]", "result": "> 100 µM (not active)"},
      {"measurement": "IC50", "setting": "[8]", "result": "> 100 µM (not active)"},
      {"measurement": "IC50", "setting": "[9]", "result": "> 100 µM (inactive)"},
      {"measurement": "IC50", "setting": "[10]", "result": "> 100 µM (inactive)"}
    ]},
    {"compound": "CCOc1ccc(N)c(SSc2cc(OCC)ccc2N)c1", "values": [
      {"measurement": "IC50", "setting": "[11]", "result": "> 100 µM (inactive)"},
      {"measurement": "IC50", "setting": "[12]", "result": "17.1 µM (active)"}
    ]},
    {"compound": "Cc1ccccc1N=Nc1ccc(O)c2ncccc12", "values": [
      {"measurement": "EC50", "setting": "[13]", "result": "5.81 µM (active)"},
      {"measurement": "EC50", "setting": "[14]", "result": "< 0.06 µM (active)"},
      {"measurement": "EC50", "setting": "BJ [15]", "result": "10.4 µM (inconclusive)"},
      {"measurement": "EC50", "setting": "cells [16]", "result": "7.93 µM (active)"},
      {"measurement": "EC50", "setting": "[17]", "result": "2.89 µM (active)"},
      {"measurement": "EC50", "setting": "[18]", "result": "2.03 µM (active)"},
      {"measurement": "EC50", "setting": "BJ [19]", "result": "15.1 µM (inconclusive)"},
      {"measurement": "EC50", "setting": "cells [20]", "result": "46.8 µM (active)"},
      {"measurement": "IC50", "setting": "[21]", "result": "4.11 µM (active)"},
      {"measurement": "EC50", "setting": "Beta-galactosidase", "result": "30.1 µM (active)"},
      {"measurement": "EC50", "setting": "BJ [22]", "result": "6.64 µM (inconclusive)"},
      {"measurement": "IC50", "setting": "[23]", "result": "> 32", "unit": "µM"},
      {"measurement": "EC50", "setting": "[24]", "result": "12.7 µM (active)"},
      {"measurement": "EC50", "setting": "Streptococcus", "result": "0.437 µM (active)"},
      {"measurement": "IC50", "setting": "Vero [25]", "result": "> 25 µM (active)"},
      {"measurement": "EC50", "setting": "BJ [26]", "result": "0.677 µM (active)"},
      {"measurement": "AC50", "setting": "INS1", "result": "1.65 µM (active)"},
      {"measurement": "CC50", "setting": "Vero [27]", "result": "5.63 µM (active)"}
    ]}
  ]
}
